What is called IC50 is the concentration needed to halve the response being measured. A low value points to greater potency.

SMILES strings stand for the structures. A value given as a limit tells only on which side of the number the result lay.

Here are results for 21 molecules from patent publication US20230192657A1, “1,2,4-TRIAZOLINONE CB1 INHIBITORS” (Goldfinch Bio, Inc., priority 2020, published 2023).

CB1 receptor, sequence (P21554 whole entry): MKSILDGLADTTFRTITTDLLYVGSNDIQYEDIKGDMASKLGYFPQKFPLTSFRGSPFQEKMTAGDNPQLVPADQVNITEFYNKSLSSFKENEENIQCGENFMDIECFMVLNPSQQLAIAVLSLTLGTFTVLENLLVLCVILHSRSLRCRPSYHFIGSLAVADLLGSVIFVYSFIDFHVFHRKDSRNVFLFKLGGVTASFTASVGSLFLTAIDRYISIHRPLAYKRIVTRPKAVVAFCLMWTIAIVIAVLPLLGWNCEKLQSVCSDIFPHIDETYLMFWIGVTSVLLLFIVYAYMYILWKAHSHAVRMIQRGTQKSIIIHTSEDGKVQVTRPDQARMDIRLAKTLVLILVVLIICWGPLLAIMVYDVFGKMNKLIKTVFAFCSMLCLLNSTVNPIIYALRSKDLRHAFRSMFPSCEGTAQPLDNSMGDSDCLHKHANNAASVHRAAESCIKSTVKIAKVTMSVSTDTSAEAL

The target in this experiment is CB1 receptor (Homo sapiens, UniProt P21554). The experiment is described as follows: CB1 cAMP Antagonist Assay (LANCE Ultra cAMP kit). In kind it is cell-based. As to conditions: Flp-In CHO cells stably expressing the CB1 receptor; forskolin and CP55940 agonist at EC90; cAMP FRET readout. An excerpt:
CB1 cAMP Antagonist Assay
LANCE Ultra cAMP kit (Perkin Elmer) was used to quantitate the amount of 3′,5′-cyclic adenosine monophosphate (cAMP) produced in Flp-In CHO (Invitrogen) cells stably expressing the CB1 receptor.
Forskolin was initially titrated to determine the response of the cells. The EC90 of forskolin was used for compound testing. CP55940 was titrated and used with EC90 of forskolin to determine the level of agonist stimulation. EC90 of the agonist was used for subsequent compound testing.
Forskolin (Sigma), CP55940 (Cayman Chemicals), and AM251 (MCE) were diluted in 100% DMSO, starting at 100 mM, 1 mM, and 1 mM respectively, in 3-fold serial dilutions. Test compounds were diluted in 100% DMSO starting from 10 mM, 3-fold dilutions. The cAMP assay buffer contains 1x Hank’s Buffered Saline Solution with Ca^2+ and Mg^2+ (Invitrogen), 5.3 mM HEPES (Invitrogen), 0.05% BSA, 0.5 mM IBMX (Sigma).
For all assays, cells were harvested, counted, and diluted in cAMP assay buffer to 1× 10^5 cells/mL. Only cells with viability >85% were used for the assay. Cells were seeded at 1000 cells/well in 384-well plates and 10 nL/well AM251 or test compound was added and incubated at 37° C. for 10 min. […] To detect the amount of cAMP produced, 5 µL of a 100x diluted stock of Eu-cAMP tracer and 5 µL of 200x diluted stock of Ulight-anti-cAMP were added to each well, and the plate incubated at 25° C. for 15 min. The FRET signal was read using an EnVision microplate reader (λex=320 nm, λem=615 nm and 665 nm).
The IC50 is determined by fitting the percentage of inhibition as a function of compound concentrations with the Hill equation, using a 4-parameter fit in either XLfit or GraphPad Prism.
On the technique in general: In TR-FRET formats the signal depends on donor and acceptor labels being close together.
As to `CC(C(N)=O)n1c(N2C[C@H](c3ccccc3)C(c3ccc(Cl)cc3)=N2)nn(Cc2ccc(CN3CCOCC3)cc2)c1=O` (stereo partly drawn) [Compound 167], the IC50 lay within 100 to 1000 nM.

`COC(=O)c1ccc(Cn2nc(N3CC(c4ccccc4)C(c4ccc(Cl)cc4)=N3)n(C)c2=O)cc1` (stereo not drawn) [Compound 168] yielded an IC50 below 100 nM.

The molecule `Cn1c(N2C[C@H](c3ccccc3)C(c3ccc(Cl)cc3)=N2)nn(Cc2ccccc2)c1=O` [Compound 169] registered an IC50 below 100 nM.

`Cn1c(N2CC(c3ccccc3)C(c3ccc(Cl)cc3)=N2)nn(Cc2cccc(C#N)c2)c1=O` (stereo not drawn) [Compound 170] returned an IC50 below 100 nM.

For `Cn1c(N2CC(c3ccccc3)C(c3ccc(Cl)cc3)=N2)nn(Cc2ccccc2Cl)c1=O` (stereo not drawn) [Compound 171], the IC50 was below 100 nM.

As for `Cn1c(N2C[C@H](c3ccccc3)C(c3ccc(Cl)cc3)=N2)n[nH]c1=O` [Compound 172, 5-[(4S)-3-(4-chlorophenyl)-4-phenyl-4,5-dihydropyrazol-1-yl]-4-methyl-2H-1,2,4-triazol-3-one], the IC50 lay within 1000 to 5000 nM.

`Cn1c(N2CC(c3ccccc3)C(c3ccc(Cl)cc3)=N2)nn(Cc2ccc(C(=O)NCCO)cc2)c1=O` (stereo not drawn) [Compound 173] registered an IC50 of 1000 to 5000 nM.

As to `C[C@H](C(N)=O)n1c(N2C[C@H](c3ccccc3)C(c3ccc(Cl)cc3)=N2)nn(Cc2ccc(Cl)cc2)c1=O` [Compound 174], the IC50 is below 100 nM.

`Cc1ccc(Cn2nc(N3CC(c4ccccc4)C(c4ccc(Cl)cc4)=N3)n(C)c2=O)cc1F` (stereo not drawn) [Compound 175] showed an IC50 below 100 nM.

Molecule `C[C@@H](C(N)=O)n1c(N2C[C@H](c3ccccc3)C(c3ccc(Cl)cc3)=N2)nn(Cc2ccc(Cl)cc2)c1=O` [Compound 176] displayed a half-inhibitory concentration (IC50) below 100 nM.

`Cn1c(N2CC(c3ccccc3)C(c3ccc(Cl)cc3)=N2)nn(Cc2ccc(Cl)cn2)c1=O` (stereo not drawn) [Compound 177]: the IC50 is below 100 nM.

With `Cc1cc(Cn2nc(N3CC(c4ccccc4)C(c4ccc(Cl)cc4)=N3)n(C)c2=O)ccc1Cl` (stereo not drawn) [Compound 178], the IC50 is below 100 nM.

Turning to `C[C@@H](C(N)=O)n1c(N2C[C@@H](c3ccccc3)C(c3ccc(Cl)cc3)=N2)nn(Cc2ccc(Cl)cc2)c1=O` [Compound 179], the IC50 is above 5000 nM.

The molecule `C[C@H](C(N)=O)n1c(N2C[C@@H](c3ccccc3)C(c3ccc(Cl)cc3)=N2)nn(Cc2ccc(Cl)cc2)c1=O` [Compound 180] displayed an IC50 above 5000 nM.

As for `Cn1c(N2C[C@@H](c3ccccc3)C(c3ccc(Cl)cc3)=N2)n[nH]c1=O` [Compound 181], the IC50 was above 5000 nM.

In turn, `Cn1c(N2CC(c3ccccc3)C(c3ccc(Cl)cc3)=N2)nn(Cc2cccc(C(N)=O)c2)c1=O` (stereo not drawn) [Compound 182] yielded a half-maximal inhibitory concentration (IC50) of 100 to 1000 nM.

For the molecule `Cc1ccc(Cn2nc(N3CC(c4ccccc4)C(c4ccc(Cl)cc4)=N3)n(C)c2=O)cn1` (stereo not drawn) [Compound 183], the IC50 lay in the range of 100 to 1000 nM.

With `C[C@@H](C(=O)NCCO)n1c(N2C[C@H](c3ccccc3)C(c3ccc(Cl)cc3)=N2)nn(Cc2ccc(Cl)cc2)c1=O` [Compound 184, (2S)-2-[3-[(4S)-3-(4-chlorophenyl)-4-phenyl-4,5-dihydropyrazol-1-yl]-1-[(4-chlorophenyl)methyl]-5-oxo-1,2,4-triazol-4-yl]-N-(2-hydroxyethyl)propanamide], the IC50 is below 100 nM.

For `Cn1c(N2CC(c3ccccc3)C(c3ccc(Cl)cc3)=N2)nn(Cc2cccc(C(=O)O)c2)c1=O` (stereo not drawn) [Compound 186], the IC50 was above 5000 nM.

Regarding `C[C@@H](C(=O)NCCO)n1c(N2C[C@@H](c3ccccc3)C(c3ccc(Cl)cc3)=N2)nn(Cc2ccc(Cl)cc2)c1=O` [Compound 187, (2S)-2-[3-[(4R)-3-(4-chlorophenyl)-4-phenyl-4,5-dihydropyrazol-1-yl]-1-[(4-chlorophenyl)methyl]-5-oxo-1,2,4-triazol-4-yl]-N-(2-hydroxyethyl)propanamide], the IC50 is above 5000 nM.

The molecule `COC(=O)c1cccc(Cn2nc(N3CC(c4ccccc4)C(c4ccc(Cl)cc4)=N3)n(C)c2=O)c1` (stereo not drawn) [Compound 189] yielded an IC50 of 100 to 1000 nM.
